We go through two molecules from patent US20050238731A1, “Composition and method for treating the effects of diseases and maladies of the upper digestive tract” (priority 2003, published 2005).

The nature of assay [1]: open label observation for control of heart burn in volunteers. The class given is in vivo, human. Particulars: open label observations in people. The text has this:
The preferred ingredients of the dietary supplement formulations for preventing or treating or managing upper digestive disorders referred to in this patent including but not limited to acid related disease, H. pylori infection and ulcerogenic medications, drugs or substances such as alcohol, tobacco smoke or any other damaging agent that is ingested or absorbed in to the body that may cause upper digestive disturbance are listed in one formulation that has undergone open label observation for the control of the symptom heart burn in six volunteers with recurrent heart burn and this formulation was made in several batches of a chewable tablet with the following ingredients that have been modified from time to time. These chewable tablets contain the following ingredients with amounts listed in two chewable tablets. The range of the ingredients has been made in different dosage amounts of each ingredient and tested in at least two volunteers for each of six batches of varying dosage of ingredients. Each batch consistently relieved symptoms of mild moderate or severe heart burn in open labeled observations in volunteers with symptoms of gastresophageal reflux disease.

For a further assay, the system named is stomach acid secretion. Particulars: rat model, cited from earlier work.
For a further assay, the system named is gastric acid secretion. Conditions: cited from earlier work.

With `O=c1oc2c(O)c(O)cc3c(=O)oc4c(O)c(O)cc1c4c23` [ellagic acid], the dyspepsia and heartburn result in assay [1] is “has helped people with dyspepsia and heartburn”. For the same molecule, the stomach acid secretion entry in the assay with stomach acid secretion (at a certain dosage level) is “stomach acid secretion was blocked”. Also, in the assay on stomach acid secretion, the stomach ulcers entry is recorded as “ulcers could be prevented in part”.

For salvianolic acid, the “development of stomach ulcers” value in the assay with gastric acid secretion (animals exposed to cold water immersion or restraint) is listed as “prevents the development of stomach ulcers”. The gastric acid secretion entry in the assay with gastric acid secretion (animals) is reported as “reduce gastric acid secretion”. The “formation of gastric ulcers” value with gastric acid secretion (pylorus-ligated animals) was “reduce the formation of gastric ulcers”.
